The text below walks through data of patent US11279687B2, “Compounds and compositions for the inhibition of NAMPT” (Valo Health, Inc., priority 2010, dated 2022).

By IC50 is commonly meant the concentration at which inhibition is half-maximal.

Like-named read-outs stand apart in the source and are kept apart here. Bounds are passed on as bounds.

Experiment [1] addresses NAMPT (Homo sapiens (Human), UniProt P43490). Briefly: NAMPT biochemical inhibition assay (NMN quantified by mass spectrometry).
For experiment [2], the system named is A2780 cells. Nature of the experiment: In-vitro cell proliferation assay (SRB), A2780 cells.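 Also: viable cell number read as SRB absorbance, background from media-only wells subtracted, IC50 interpolated from percent inhibition at two bracketing compound concentrations.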 Type of experiment: cell-based. The settings on record: A2780 cells, 72 hours, SRB, read-out: A2780 IC50.
Setting [3] is: NAMPT biochemical inhibition, read-out: Biochem IC50.

Sequence of NAMPT (P43490 whole entry): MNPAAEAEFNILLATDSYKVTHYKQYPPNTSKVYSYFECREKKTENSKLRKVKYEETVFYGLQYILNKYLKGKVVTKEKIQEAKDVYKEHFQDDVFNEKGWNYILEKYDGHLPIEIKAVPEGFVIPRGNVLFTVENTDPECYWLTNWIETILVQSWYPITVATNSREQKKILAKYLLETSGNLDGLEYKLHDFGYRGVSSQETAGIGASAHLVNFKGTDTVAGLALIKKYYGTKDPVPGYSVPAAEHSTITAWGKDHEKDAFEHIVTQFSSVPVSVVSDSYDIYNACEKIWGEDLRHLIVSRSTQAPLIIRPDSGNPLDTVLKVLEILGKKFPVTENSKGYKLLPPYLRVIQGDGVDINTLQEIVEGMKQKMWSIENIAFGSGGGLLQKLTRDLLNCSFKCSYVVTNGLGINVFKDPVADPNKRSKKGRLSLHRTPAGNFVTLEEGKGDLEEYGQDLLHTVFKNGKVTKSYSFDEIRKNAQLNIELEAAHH

Consider `O=C(NCc1cccnc1)Nc1ccc(S(=O)(=O)N2CCC3(CCCCC3)CC2)cc1` [1-(4-{3-azaspiro[5.5]undecane-3-sulfonyl}phenyl)-3-(pyridin-3-ylmethyl)urea], for which the IC50 in experiment [1] (setting [3]) is 11 nM; in experiment [2] (Homo sapiens, A2780, 72 h) it was 145 nM.

For `O=C(NCc1cccnc1)Nc1ccc(S(=O)(=O)N2Cc3cccc4cccc(c34)C2)cc1` [1-(4-{3-azatricyclo[7.3.1.0^5,^13]trideca-1(13),5,7,9,11-pentaene-3-sulfonyl}phenyl)-3-(pyridin-3-ylmethyl)urea], the IC50 in experiment [1] (setting [3]) was 2 nM; in experiment [2] it was 26 nM.

For the molecule `O=C(NCc1cccnc1)Nc1ccc(S(=O)(=O)N2CCN(CC(=O)N3CCOCC3)CC2)cc1` [1-(4-{4-[2-(morpholin-4-yl)-2-oxoethyl]piperazine-1-sulfonyl}phenyl)-3-(pyridin-3-ylmethyl)urea], the IC50 in experiment [1] (setting [3]) was determined as 4 nM; in experiment [2] (Homo sapiens, A2780, 72 h) it was 135 nM.

Take `O=C(NCc1cccnc1)Nc1ccc(S(=O)(=O)N2CCN(CC(=O)N3CCCCC3)CC2)cc1` [1-(4-{4-[2-oxo-2-(piperidin-1-yl)ethyl]piperazine-1-sulfonyl}phenyl)-3-(pyridin-3-ylmethyl)urea]: the 50% inhibitory concentration (IC50) in experiment [1] (setting [3]) was determined as 9 nM; in experiment [2] (Homo sapiens, A2780, 72 h), 21 nM.

`O=C(NCc1cccnc1)Nc1ccc(S(=O)(=O)N2CCN(CC(=O)N3CCCC3)CC2)cc1` [1-(4-{4-[2-oxo-2-(pyrrolidin-1-yl)ethyl]piperazine-1-sulfonyl}phenyl)-3-(pyridin-3-ylmethyl)urea]: the IC50 in experiment [1] (setting [3]) is 4 nM; in experiment [2] (Homo sapiens, A2780, 72 h), 99 nM.

Turning to `O=C(NCc1cccnc1)Nc1ccc(S(=O)(=O)N2CCN(CCCN3CCOCC3)CC2)cc1` [1-(4-{4-[3-(morpholin-4-yl)propyl]piperazine-1-sulfonyl}phenyl)-3-(pyridin-3-ylmethyl)urea], the IC50 in experiment [1] (setting [3]) was found to be 3 nM; in experiment [2] (Homo sapiens, A2780, 72 h) it was 24 nM.

With `O=C(NCc1cccnc1)Nc1ccc(S(=O)(=O)N2CCC(CN3CCCC3=O)CC2)cc1` [1-(4-{4-[(2-oxopyrrolidin-1-yl)methyl]piperidine-1-sulfonyl}phenyl)-3-(pyridin-3-ylmethyl)urea], the IC50 worked out at 2 nM in experiment [1] (setting [3]) and 78 nM in experiment [2] (Homo sapiens, A2780, 72 h).

`O=C(NCc1cccnc1)Nc1ccc(S(=O)(=O)N2CCN(C(=O)c3ccco3)CC2)cc1` [1-(4-{4-[(furan-2-yl)carbonyl]piperazine-1-sulfonyl}phenyl)-3-(pyridin-3-ylmethyl)urea]: the concentration for half-maximal inhibition (IC50) is 4 nM in experiment [1] (setting [3]) and 168 nM in experiment [2] (Homo sapiens, A2780, 72 h).

In the case of `O=C(NCc1cccnc1)Nc1ccc(S(=O)(=O)N2C3CCCC2CC3)cc1` [1-(4-{8-azabicyclo[3.2.1]octane-8-sulfonyl}phenyl)-3-(pyridin-3-ylmethyl)urea], the half-maximal inhibitory concentration (IC50) in experiment [1] was determined as 4 nM; in experiment [2] (Homo sapiens, A2780, 72 h) it was 64 nM.

For `O=C(NCc1cccnc1)Nc1ccc(S(=O)(=O)N2CCC3(CCCC3)CC2)cc1` [1-(4-{8-azaspiro[4.5]decane-8-sulfonyl}phenyl)-3-(pyridin-3-ylmethyl)urea], the IC50 in experiment [1] (setting [3]) is 4 nM; in experiment [2] (Homo sapiens, A2780, 72 h), 343 nM.

With `O=C(NCc1cccnc1)Nc1ccc(S(=O)(=O)c2cccc3c2oc2ccccc23)cc1` [1-(4-{8-oxatricyclo[7.4.0.0^2,^7]trideca-1(9),2(7),3,5,10,12-hexaene-6-sulfonyl}phenyl)-3-(pyridin-3-ylmethyl)urea], the IC50 in experiment [1] (setting [3]) worked out at 2 nM; in experiment [2], 3 nM.

For `O=C(NCc1cccnc1)Nc1ccc(S(=O)(=O)Nc2ccccc2N2CCOCC2)cc1` [1-(4-{[2-(morpholin-4-yl)phenyl]sulfamoyl}phenyl)-3-(pyridin-3-ylmethyl)urea], the IC50 turned out to be 5 nM in experiment [1] (setting [3]) and 11 nM in experiment [2] (Homo sapiens, A2780, 72 h).

As for `O=C(NCc1cccnc1)Nc1ccc(S(=O)(=O)c2ccccc2CN2CCOCC2)cc1` [1-(4-{[2-(morpholin-4-ylmethyl)benzene]sulfonyl}phenyl)-3-(pyridin-3-ylmethyl)urea], the IC50 in experiment [1] (setting [3]) worked out at 3.6 nM; in experiment [2] (Homo sapiens, A2780, 72 h), 7.9 nM.

As for `O=C(NCc1cccnc1)Nc1ccc(S(=O)(=O)Nc2ccccc2N2CCCCC2)cc1` [1-(4-{[2-(piperidin-1-yl)phenyl]sulfamoyl}phenyl)-3-(pyridin-3-ylmethyl)urea], the IC50 is 4 nM in experiment [1] (setting [3]) and 18 nM in experiment [2] (Homo sapiens, A2780, 72 h).

On to `O=C(NCc1cccnc1)Nc1ccc(S(=O)(=O)c2cccc(-n3cccn3)c2)cc1` [1-(4-{[3-(1H-pyrazol-1-yl)benzene]sulfonyl}phenyl)-3-(pyridin-3-ylmethyl)urea], for which the IC50 in experiment [1] (setting [3]) was found to be 2.2 nM; in experiment [2] (Homo sapiens, A2780, 72 h) it was 98 nM.

As for `O=C(NCc1cccnc1)Nc1ccc(S(=O)(=O)c2cccc(OCC3CC3)c2)cc1` [1-(4-{[3-(cyclopropylmethoxy)benzene]sulfonyl}phenyl)-3-(pyridin-3-ylmethyl)urea], the IC50 in experiment [1] (setting [3]) is 8.6 nM; in experiment [2] (Homo sapiens, A2780, 72 h), 100 to 1000 nM.

As for `O=C(NCc1cccnc1)Nc1ccc(S(=O)(=O)Nc2cccc(N3CCOCC3)c2)cc1` [1-(4-{[3-(morpholin-4-yl)phenyl]sulfamoyl}phenyl)-3-(pyridin-3-ylmethyl)urea], the IC50 in experiment [1] (setting [3]) was 6 nM; in experiment [2] (Homo sapiens, A2780, 72 h), 103 nM.

Take `O=C(NCc1cccnc1)Nc1ccc(S(=O)(=O)c2ccc(-n3cccn3)cc2)cc1` [1-(4-{[4-(1H-pyrazol-1-yl)benzene]sulfonyl}phenyl)-3-(pyridin-3-ylmethyl)urea]: the IC50 in experiment [1] (setting [3]) came to 5.5 nM; in experiment [2] (Homo sapiens, A2780, 72 h), 55 nM.

Regarding `O=C(NCc1cccnc1)Nc1ccc(S(=O)(=O)c2ccc(N3CCOCC3)cc2)cc1` [1-(4-{[4-(morpholin-4-yl)benzene]sulfonyl}phenyl)-3-(pyridin-3-ylmethyl)urea], the IC50 was 1.8 nM in experiment [1] (setting [3]) and 14.7 nM in experiment [2] (Homo sapiens, A2780, 72 h).

`O=C(NCc1cccnc1)Nc1ccc(S(=O)(=O)Nc2ccc(N3CCOCC3)cc2)cc1` [1-(4-{[4-(morpholin-4-yl)phenyl]sulfamoyl}phenyl)-3-(pyridin-3-ylmethyl)urea]: the IC50 in experiment [1] (setting [3]) stood at 5 nM; in experiment [2] (Homo sapiens, A2780, 72 h) it was 173 nM.

With `O=C(NCc1cccnc1)Nc1ccc(S(=O)(=O)Nc2ccc(N3CCCCC3)cc2)cc1` [1-(4-{[4-(piperidin-1-yl)phenyl]sulfamoyl}phenyl)-3-(pyridin-3-ylmethyl)urea], the IC50 in experiment [1] (setting [3]) was determined as 4 nM; in experiment [2] (Homo sapiens, A2780, 72 h) it was 54 nM.

In the case of `O=C(NCc1cccnc1)Nc1ccc(S(=O)(=O)Nc2ccccc2OC(F)(F)F)cc1` [1-(pyridin-3-ylmethyl)-3-(4-{[2-(trifluoromethoxy)phenyl]sulfamoyl}phenyl)urea], the IC50 in experiment [1] (setting [3]) was 1.2 nM; in experiment [2] (Homo sapiens, A2780, 72 h), 7 nM.

For `O=C(NCc1cccnc1)Nc1ccc(S(=O)(=O)c2ccccc2C(F)(F)F)cc1` [1-(pyridin-3-ylmethyl)-3-(4-{[2-(trifluoromethyl)benzene]sulfonyl}phenyl)urea], the IC50 in experiment [1] (setting [3]) stood at 3 nM; in experiment [2] (Homo sapiens, A2780, 72 h), 569 nM.

As for `O=C(NCc1cccnc1)Nc1ccc(S(=O)(=O)c2cccc(OC(F)(F)F)c2)cc1` [1-(pyridin-3-ylmethyl)-3-(4-{[3-(trifluoromethoxy)benzene]sulfonyl}phenyl)urea], the IC50 was found to be 1 nM in experiment [1] (setting [3]) and 83 nM in experiment [2] (Homo sapiens, A2780, 72 h).

Regarding `O=C(NCc1cccnc1)Nc1ccc(S(=O)(=O)c2ccc(OC(F)(F)F)cc2)cc1` [1-(pyridin-3-ylmethyl)-3-(4-{[4-(trifluoromethoxy)benzene]sulfonyl}phenyl)urea], the IC50 in experiment [1] (setting [3]) was 5 nM; in experiment [2] (Homo sapiens, A2780, 72 h), 420 nM.

On to `O=C(NCc1cccnc1)Nc1ccc(S(=O)(=O)c2ccc(C(F)(F)F)cc2)cc1` [1-(pyridin-3-ylmethyl)-3-(4-{[4-(trifluoromethyl)benzene]sulfonyl}phenyl)urea], for which the IC50 in experiment [1] (setting [3]) came out at 9 nM; in experiment [2] (Homo sapiens, A2780, 72 h) it was 604 nM.

In the case of `C[C@@H]1[C@H]2C[C@@H](C[C@H]1NS(=O)(=O)c1ccc(NC(=O)NCc3cccnc3)cc1)C2(C)C` [1-(pyridin-3-ylmethyl)-3-(4-{[(1R,2R,3R,5S)-2,6,6-trimethylbicyclo[3.1.1]heptan-3-yl]sulfamoyl}phenyl)urea], the IC50 in experiment [1] (setting [3]) amounted to 80 nM; in experiment [2] (Homo sapiens, A2780, 72 h) it was 91 nM.

For the molecule `O=C(NCc1cccnc1)Nc1ccc(S(=O)(=O)n2cccc2)cc1` [1-(pyridin-3-ylmethyl)-3-[4-(1H-pyrrole-1-sulfonyl)phenyl]urea], the half-maximal inhibitory concentration (IC50) in experiment [1] (setting [3]) was 19 nM; in experiment [2] (Homo sapiens, A2780, 72 h), 1790 nM.

As for `CC1CCN(S(=O)(=O)c2ccc(NC(=O)NCc3cccnc3)cc2)CC(C)(C)C1` (stereo not shown) [1-(pyridin-3-ylmethyl)-3-[4-(3,3,5-trimethylazepane-1-sulfonyl)phenyl]urea], the IC50 is 2 nM in experiment [1] (setting [3]) and 9.2 nM in experiment [2] (Homo sapiens, A2780, 72 h).

Regarding `O=C(NCc1cccnc1)Nc1ccc(S(=O)(=O)C(F)(F)F)cc1` [1-(pyridin-3-ylmethyl)-3-[4-(trifluoromethane)sulfonylphenyl]urea], the IC50 in experiment [1] (setting [3]) stood at 226 nM; in experiment [2] (Homo sapiens, A2780, 72 h) it was 10000 nM.

For `O=C(NCc1cccnc1)Nc1ccc(S(=O)(=O)N2CCCC(C(F)(F)F)C2)cc1` (stereo not shown) [1-(pyridin-3-ylmethyl)-3-{4-[3-(trifluoromethyl)piperidine-1-sulfonyl]phenyl}urea], the half-maximal inhibitory concentration (IC50) was 3 nM in experiment [1] (setting [3]) and 26 nM in experiment [2] (Homo sapiens, A2780, 72 h).

Turning to `O=C(NCc1cccnc1)Nc1ccc(S(=O)(=O)c2ccc(C(F)(F)F)nc2)cc1` [1-(pyridin-3-ylmethyl)-3-{4-[6-(trifluoromethyl)pyridine-3-sulfonyl]phenyl}urea], the IC50 in experiment [1] (setting [3]) is 27.9 nM; in experiment [2] (Homo sapiens, A2780, 72 h) it was 1000 to 10000 nM.

As for `Cc1cc(C)c(S(=O)(=O)c2ccc(NC(=O)NCc3cccnc3)cc2)c(C)c1` [1-(pyridin-3-ylmethyl)-3-{4-[(2,4,6-trimethylbenzene)sulfonyl]phenyl}urea], the IC50 in experiment [1] (setting [3]) was 11 nM; in experiment [2] (Homo sapiens, A2780, 72 h) it was over 1000 nM.

As for `NS(=O)(=O)c1cccc(S(=O)(=O)c2ccc(NC(=O)NCc3cccnc3)cc2)c1` [1-(pyridin-3-ylmethyl)-3-{4-[(3-sulfamoylbenzene)sulfonyl]phenyl}urea], the IC50 in experiment [1] (setting [3]) was 3.8 nM; in experiment [2] (Homo sapiens, A2780, 72 h), 100 to 1000 nM.

Turning to `O=C(NCc1cccnc1)Nc1ccc(S(=O)(=O)N2CCC[C@H](C(F)(F)F)C2)cc1` [1-(pyridin-3-ylmethyl)-3-{4-[(3S)-3-(trifluoromethyl)piperidine-1-sulfonyl]phenyl}urea], the IC50 in experiment [1] (setting [3]) was determined as 3 nM; in experiment [2] (Homo sapiens, A2780, 72 h), 29 nM.
